Measured values published in patent publication US20080249042A1, “All-Trans-Retinol: All-Trans-13,14-Dihydroretinol Saturase and Methods of Its Use” (UNIVERSITY OF WASHINGTON, priority 2004, published 2008).

Assays:
[1] = target: T1, CYP26B1 (Mus musculus, UniProt Q811W2); settings: 0.1 mM, 4 h, cells in culture
T1 sequence (Q811W2 1-512): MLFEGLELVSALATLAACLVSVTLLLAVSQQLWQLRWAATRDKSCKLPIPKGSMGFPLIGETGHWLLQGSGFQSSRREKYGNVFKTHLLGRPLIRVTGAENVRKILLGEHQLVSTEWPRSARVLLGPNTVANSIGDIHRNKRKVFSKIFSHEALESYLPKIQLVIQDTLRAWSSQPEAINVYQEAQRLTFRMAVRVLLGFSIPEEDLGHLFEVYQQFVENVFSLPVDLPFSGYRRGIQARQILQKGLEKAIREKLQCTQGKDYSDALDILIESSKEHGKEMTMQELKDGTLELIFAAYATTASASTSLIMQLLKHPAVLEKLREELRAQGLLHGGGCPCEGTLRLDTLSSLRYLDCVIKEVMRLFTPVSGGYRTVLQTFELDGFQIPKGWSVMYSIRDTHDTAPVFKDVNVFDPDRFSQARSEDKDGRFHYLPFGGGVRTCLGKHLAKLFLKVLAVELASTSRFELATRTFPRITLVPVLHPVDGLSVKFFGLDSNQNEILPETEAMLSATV
Description: CYP26A1 Oxidation Assay. […] After 24 h, the transfected cells were split into 12-well plates to ensure an equal number of transfected cells in each assay well. […] The peaks were identified based on their spectra and coelution with standards. The cell lysate was examined for expression of CYP26A1, -B1, and -C1 by SDS-PAGE and immunoblotting of the V5 epitope-tagged recombinant protein using an anti-V5 epitope monoclonal antibody (Invitrogen).

[2] = target: T2, Equine liver ADH (Equus caballus, UniProt P00327); experiment: Oxidation using liver alcohol dehydrogenase; type: biochemical, horse; settings: in the presence of NAD and NADP
T2 construct: we used ADH purified from horse liver (EC 1.1.1.1 [EC]); purchased Sigma; host or cells: horse liver
Description: Oxidation of All-trans-ROL and All-trans-DROL Using Liver Alcohol Dehydrogenase. Equine liver ADH (EC 1.1.1.1 [EC] ) was obtained from Sigma and dissolved in 50 mM Tris (pH 8.8) to a concentration of 5 units/ml (8.6 mg/ml). NAD and NADP were mixed together (1:1) at a concentration of 10 mM each. A substrate solution, 2 μl of 2 mM stock of all-trans-ROL or all-trans-DROL in N,N-dimethylformamide, was added to a 1.5-ml Eppendorf tube containing 20 μl of 10% bovine serum albumin, 20 μl of ADH, 2 μl of cofactor mixture, and 50 mM Tris (pH 8.8) to a total volume of 200 μl. The solutions were incubated at 37° C. for 60 min, after which 50 μl of 0.8 M NH2OH solution (pH 7.0) was added, followed by addition of 300 μl of methanol, 15 min at room temperature, and extraction with 300 μl of hexane. The organic phase was dried and analyzed by normal phase HPLC as described in the analysis of nonpolar retinoids extracted from tissue samples. As a control for the nonenzymatic reaction, boiled protein (90° C. for 5 min) was used with or without addition of cofactors.

[3] = Conversion of DROL to DRA by RPE microsomes; type: in vitro ADME; settings: in the presence of NAD and NADP
Description: Conversion of DROL to DRA in RPE. UV-treated RPE microsomes were prepared as described previously. Stecher, et al. J. Biol. Chem. 274:8577-8585, 1999. Twenty μl of UV-treated RPE microsomes (3 mg/ml) were mixed with 20 μM DROL or ROL substrates, 1% bovine serum albumin, and 50 mM Tris (pH 8.8) and were incubated at 37° C. for 60 min in the presence or absence of NAD NADP cofactor mixture at 50 μM each. In order to stop the reaction, proteins were precipitated by mixing with an equal volume of CH3CN followed by high speed centrifugation. […] A boiled RPE membrane control was used to assay nonenzymatic conversion of DROL. The elution of all-trans-DROL metabolites was monitored at 290 nm.

[4] = target: T3, prRDH (Homo sapiens, UniProt Q9NYR8); experiment: Oxidation by photoreceptor-specific RDH; type: biochemical; settings: results not shown
T3 sequence (Q9NYR8 1-311): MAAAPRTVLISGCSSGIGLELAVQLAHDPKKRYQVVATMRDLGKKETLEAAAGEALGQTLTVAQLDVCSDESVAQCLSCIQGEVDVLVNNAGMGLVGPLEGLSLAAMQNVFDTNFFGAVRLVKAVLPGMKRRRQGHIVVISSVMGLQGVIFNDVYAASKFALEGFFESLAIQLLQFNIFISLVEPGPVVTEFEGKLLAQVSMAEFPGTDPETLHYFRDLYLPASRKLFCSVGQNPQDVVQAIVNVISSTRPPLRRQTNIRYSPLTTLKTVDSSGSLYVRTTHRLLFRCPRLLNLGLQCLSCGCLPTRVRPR

T2 sequence (P00327 2-375 limits assumed): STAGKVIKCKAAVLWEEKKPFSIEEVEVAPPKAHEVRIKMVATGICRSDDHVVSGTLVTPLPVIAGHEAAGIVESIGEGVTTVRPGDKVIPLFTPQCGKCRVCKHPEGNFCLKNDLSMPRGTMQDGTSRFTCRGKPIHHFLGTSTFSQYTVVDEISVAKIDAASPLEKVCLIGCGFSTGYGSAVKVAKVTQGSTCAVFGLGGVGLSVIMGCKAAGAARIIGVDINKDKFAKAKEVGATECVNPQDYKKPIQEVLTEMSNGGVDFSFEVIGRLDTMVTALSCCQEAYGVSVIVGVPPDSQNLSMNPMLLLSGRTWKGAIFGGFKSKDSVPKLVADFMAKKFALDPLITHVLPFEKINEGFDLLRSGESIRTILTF

| SMILES | Oxidation to polar metabolites by CYP26B1 [1] | Oxidation to the aldehyde by ADH [2] | Conversion to the acid by RPE microsomes [3] | Oxidation to the aldehyde by prRDH [4] |
| --- | --- | --- | --- | --- |
| CC1=C(/C=C/C(C)=C/C=C/C(C)CC(=O)O)C(C)(C)CCC1 (stereo not drawn) [all-trans-DRA, all-trans-13,14-dihydroretinoic acid] | efficiently carried out the oxidation |  |  |  |
| CC1=C(/C=C/C(C)=C/C=C/C(C)CCO)C(C)(C)CCC1 (stereo not drawn) [all-trans-DROL, all-trans-13,14-dihydroretinol] |  | efficiently carried out the conversion | efficiently converted | much less so |
| CC1=C(/C=C/C(C)=C/C=C/C(C)=C/C(=O)O)C(C)(C)CCC1 [all-trans-RA, all-trans-retinoic acid, reference compound] | efficiently carried out the oxidation |  |  |  |
| CC1=C(/C=C/C(C)=C/C=C/C(C)=C/CO)C(C)(C)CCC1 [all-trans-ROL, all-trans-retinol] |  | efficiently carried out the conversion | catalyzed the conversion | active |
